# Where two headings read alike, the source gives them in different places.
# Tests used:
# hP2Y14R = biological target: T1, hP2Y14R (Homo sapiens, UniProt Q15391); assay: Inhibition of fluorescent antagonist binding in whole hP2Y14R-expressing CHO cells (flow cytometry)
# T1 construct: expressed in transfected cells; host or cells: CHO cells
# T1 sequence (Q15391 1-338): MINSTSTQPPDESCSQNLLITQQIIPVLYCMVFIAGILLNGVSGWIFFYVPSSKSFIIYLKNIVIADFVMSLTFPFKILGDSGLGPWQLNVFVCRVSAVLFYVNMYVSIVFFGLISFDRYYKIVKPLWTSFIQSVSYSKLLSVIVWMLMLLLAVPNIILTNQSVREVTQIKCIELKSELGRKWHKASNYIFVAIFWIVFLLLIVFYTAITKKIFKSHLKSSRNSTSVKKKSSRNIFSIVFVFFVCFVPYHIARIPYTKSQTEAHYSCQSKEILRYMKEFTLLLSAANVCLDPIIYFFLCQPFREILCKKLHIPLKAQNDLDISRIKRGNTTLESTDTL
# mP2Y14R = biological target: T2, mP2Y14R (Mus musculus, UniProt Q9ESG6); assay: cell-based; details: for affinity at the mP2Y14R vs the human homologue: comparison of species, in words
# T2 sequence (Q9ESG6 1-338): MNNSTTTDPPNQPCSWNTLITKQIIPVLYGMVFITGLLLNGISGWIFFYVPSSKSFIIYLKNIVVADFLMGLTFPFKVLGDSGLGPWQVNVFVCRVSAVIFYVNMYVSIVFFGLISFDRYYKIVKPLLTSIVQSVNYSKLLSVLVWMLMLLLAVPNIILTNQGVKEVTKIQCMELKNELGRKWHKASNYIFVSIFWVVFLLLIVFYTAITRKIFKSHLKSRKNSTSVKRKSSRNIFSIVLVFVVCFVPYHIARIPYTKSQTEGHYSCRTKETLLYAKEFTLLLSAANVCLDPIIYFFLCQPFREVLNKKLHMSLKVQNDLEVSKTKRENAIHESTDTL
# Description: Desirably, receptor affinity is maintained across species, facilitating performance in in vivo preclinical testing in small animals, with the mouse being the most commonly used species in initial evaluation.
# hERG ion channel = hERG ion channel (Homo sapiens, UniProt Q12809); assay: hERG ion channel block, patch clamp assay
# Sequence of hERG ion channel (Q12809 whole entry): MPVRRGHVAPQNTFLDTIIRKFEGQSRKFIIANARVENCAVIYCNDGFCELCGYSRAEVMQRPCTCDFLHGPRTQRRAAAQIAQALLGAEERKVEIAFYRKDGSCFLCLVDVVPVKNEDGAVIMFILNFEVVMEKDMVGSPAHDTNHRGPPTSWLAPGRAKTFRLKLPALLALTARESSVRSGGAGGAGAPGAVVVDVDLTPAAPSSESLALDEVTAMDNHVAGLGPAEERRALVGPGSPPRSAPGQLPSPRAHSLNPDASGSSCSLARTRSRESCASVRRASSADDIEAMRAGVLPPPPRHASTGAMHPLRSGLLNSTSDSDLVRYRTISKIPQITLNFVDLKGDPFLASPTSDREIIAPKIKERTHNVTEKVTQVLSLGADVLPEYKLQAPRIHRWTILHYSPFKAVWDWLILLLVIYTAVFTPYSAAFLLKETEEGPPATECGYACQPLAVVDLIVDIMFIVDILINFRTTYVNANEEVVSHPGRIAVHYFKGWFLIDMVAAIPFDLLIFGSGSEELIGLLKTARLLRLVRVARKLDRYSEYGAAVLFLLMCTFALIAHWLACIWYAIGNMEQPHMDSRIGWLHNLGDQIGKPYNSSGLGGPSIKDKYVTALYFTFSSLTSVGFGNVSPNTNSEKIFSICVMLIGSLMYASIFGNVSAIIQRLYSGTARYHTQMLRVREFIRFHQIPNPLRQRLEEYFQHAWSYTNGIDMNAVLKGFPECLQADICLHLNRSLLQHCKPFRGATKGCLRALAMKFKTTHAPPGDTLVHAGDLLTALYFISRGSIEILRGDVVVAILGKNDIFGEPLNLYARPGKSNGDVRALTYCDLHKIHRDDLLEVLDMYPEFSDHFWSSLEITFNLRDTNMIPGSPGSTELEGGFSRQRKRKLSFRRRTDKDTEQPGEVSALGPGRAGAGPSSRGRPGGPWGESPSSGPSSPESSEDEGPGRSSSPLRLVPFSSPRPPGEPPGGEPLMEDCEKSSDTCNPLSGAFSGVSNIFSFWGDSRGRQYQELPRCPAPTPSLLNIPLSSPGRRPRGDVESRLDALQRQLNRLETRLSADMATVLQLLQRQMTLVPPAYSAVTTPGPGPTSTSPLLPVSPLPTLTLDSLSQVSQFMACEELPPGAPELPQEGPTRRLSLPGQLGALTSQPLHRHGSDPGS
# [1] = Aqueous solubility, pION method
# [2] = HPLC-based lipophilicity (Log D7.4); details: for chromatographic logD: pH 7.4; for Log D7.4: HPLC-based lipophilicity
# [3] = read-out: mP2Y14R, IC50, Table 2, tracer 2 (20 nM, 45 min), HEK293 cells
# [4] = Table 2, whole hP2Y14R-CHO cells, 20 nM fluorescent antagonist 3, mean+SEM, n = 3-6, read-out: IC50
# [5] = Table 6, fluorescent hP2Y14R antagonist (3), read-out: hP2Y14R, IC50
# [6] = read-out: mP2Y14R, IC50, Table 6, whole mP2Y14R-HEK cells, 200 nM of 3, mean ± SEM, n = 3-6
structure (smiles),measurement,setting,value
"O=C(O)c1cc(-c2ccc(-c3cc(CO)on3)cc2)cc(-n2cc(-c3ccc(C(F)(F)F)cc3)nn2)c1 [Compound 29, 4′-(5-(Hydroxymethyl)isoxazol-3-yl)-5-(4-(4-(trifluoromethyl)phenyl)-1H-1,2,3-triazol-1-yl)-[1,1′-biphenyl]-3-carboxylic acid]",IC50,"hP2Y14R; Table 2, tracer 2 (20 nM, 45 min), CHO cells, read-out: hP2Y14R, IC50",0.296 ± 0.013 µM
same,affinity at the mP2Y14R vs the human homologue,mP2Y14R,slightly enhanced affinity
same,IC50,mP2Y14R; [3],0.184 ± 0.024 µM
"O=C(O)c1cc(-c2ccc([C@@H]3C[C@@H]4C[C@H]3CN4)cc2)c2ccc(-c3ccc(C(F)(F)F)cc3)cc2c1 [Compound 115, 4-(4-((1R,4R,5R)-2-Azabicyclo[2.2.1]heptan-5-yl)phenyl)-7-(4-(trifluoromethyl)phenyl)-2-naphthoic acid]",IC50,hP2Y14R; [4],0.00862 ± 0.00211 µM
same,IC50,hERG ion channel,> 30 µM
"N[C@H]1C[C@@H](CO)[C@H](c2ccc(-c3cc(C(=O)O)cc4cc(-c5ccc(C(F)(F)F)cc5)ccc34)cc2)C1 [Compound 135, 4-(4-((1R,2R,4R)-4-Amino-2-(hydroxymethyl)cyclopentyl)phenyl)-7-(4-(trifluoromethyl)phenyl)-2-naphthoic acid]",IC50,hP2Y14R; [4],0.0126 ± 0.0019 µM
same,Solubility (ug/mL) pH 4,[1],4.97 ± 0.11 ug/mL
same,Solubility (ug/mL) pH 7.4,[1],0.66 ± 0.02 ug/mL
same,chromatographic logD,[2],0.957 ± 0.046
same,IC50,hERG ion channel,> 30 µM
"O=C(O)c1cc(-c2ccc([C@@H]3C[C@@H]4C[C@H]3C(=O)N4)cc2)c2ccc(-c3ccc(C(F)(F)F)cc3)cc2c1 [Compound 120, 4-(4-((1R,4R,5R)-3-Oxo-2-azabicyclo[2.2.1]heptan-5-yl)phenyl)-7-(4-(trifluoromethyl)phenyl)-2-naphthoic acid]",IC50,hP2Y14R; [5],0.0395 ± 0.0098 µM
same,IC50,mP2Y14R; [6],0.0262 ± 0.0107 µM
same,Solubility (ug/mL) pH 4,[1],0.31 ± 0.14 ug/mL
same,Solubility (ug/mL) pH 7.4,[1],3.42 ± 0.46 ug/mL
same,EC50,"hERG ion channel; read-out: (EC50), μM for stimulation of hERG channel activity, patch clamp, Table 8",18.1 µM
"O=C(O)c1cc(-c2ccc([C@@H]3C[C@H]4CN[C@@H]3C4)cc2)c2ccc(-c3ccc(C(F)(F)F)cc3)cc2c1 [Compound 116, 4-(4-((1R,4R,6S)-2-Azabicyclo[2.2.1]heptan-6-yl)phenyl)-7-(4-(trifluoromethyl)phenyl)-2-naphthoic acid]",IC50,hP2Y14R; [4],0.0098 ± 0.0003 µM
same,Solubility (ug/mL) pH 4,[1],1.45 ± 0.05 ug/mL
same,Solubility (ug/mL) pH 7.4,[1],0.40 ± 0.13 ug/mL
same,chromatographic logD,[2],2.11 ± 0.06
same,IC50,hERG ion channel,> 30 µM
"N[C@@H]1C[C@H](CO)[C@@H](c2ccc(-c3cc(C(=O)O)cc4cc(-c5ccc(C(F)(F)F)cc5)ccc34)cc2)C1 [Compound 134, 4-(4-((1S,2S,4S)-4-Amino-2-(hydroxymethyl)cyclopentyl)phenyl)-7-(4-(trifluoromethyl)phenyl)-2-naphthoic acid]",IC50,hP2Y14R; [5],0.0108 ± 0.0021 µM
same,IC50,mP2Y14R; [6],0.0179 ± 0.0026 µM
same,IC50,hERG ion channel,> 30 µM
"N[C@@H]1C[C@H](C(=O)O)[C@@H](c2ccc(-c3cc(C(=O)O)cc4cc(-c5ccc(C(F)(F)F)cc5)ccc34)cc2)C1 [Compound 138, 4-(4-((1S,2S,4S)-4-Amino-2-carboxycyclopentyl)phenyl)-7-(4-(trifluoromethyl)phenyl)-2-naphthoic acid]",IC50,hP2Y14R; [5],0.0496 ± 0.0135 µM
same,IC50,mP2Y14R; [6],0.0409 ± 0.0063 µM
"O=C(O)c1cc(-c2ccc([C@H]3C[C@H]4C[C@@H]3CN4)cc2)c2ccc(-c3ccc(C(F)(F)F)cc3)cc2c1 (racemic) [Compound 112, rac-4-(4-((1S,4S,5S)-2-Azabicyclo[2.2.1]heptan-5-yl)phenyl)-7-(4-(trifluoromethyl)phenyl)-2-naphthoic acid]",IC50,hP2Y14R,0.0059 ± 0.0007 µM
same,solubility,"[1]; pH 7.4, aqueous buffer",0.47 ± 0.06 µg/mL
same,chromatographic logD,[2],1.95 ± 0.01
"O=C(O)c1cc(-c2ccc([C@]3(O)[C@@H]4CC[C@H]3CNC4)cc2)c2ccc(-c3ccc(C(F)(F)F)cc3)cc2c1 [Compound 131, 4-(4-((1R,5S,8r)-8-Hydroxy-3-azabicyclo[3.2.1]octan-8-yl)phenyl)-7-(4-(trifluoromethyl)phenyl)-2-naphthoic acid]",IC50,hP2Y14R,0.0213 ± 0.0011 µM
same,IC50,mP2Y14R,0.0155 ± 0.0033 µM
same,solubility,"[1]; pH 4, aqueous buffer",2.32 ± 0.25 µg/mL
same,solubility,"[1]; pH 7.4, aqueous buffer",0.54 ± 0.09 µg/mL
same,chromatographic logD,[2],1.2 ± 0.01
same,IC50,hERG ion channel,> 30 µM
"CC(=O)N1C[C@H]2C[C@@H]1C[C@@H]2c1ccc(-c2cc(C(=O)O)cc3cc(-c4ccc(C(F)(F)F)cc4)ccc23)cc1 [Compound 118, 4-(4-((1S,4S,5S)-2-Acetyl-2-azabicyclo[2.2.1]heptan-5-yl)phenyl)-7-(4-(trifluoromethyl)phenyl)-2-naphthoic acid]",IC50,hP2Y14R; [5],0.107 ± 0.013 µM
same,IC50,mP2Y14R; [6],0.102 ± 0.039 µM
same,Solubility (ug/mL) pH 7.4,[1],1.86 ± 0.05 ug/mL
same,chromatographic logD,[2],0.921 ± 0.034
"CC(C)(C)OC(=O)NCCCc1ccc(-c2cc(C(=O)O)cc(-n3cc(-c4ccc(C(F)(F)F)cc4)nn3)c2)cc1 [Compound 20, 4′-(3-((tert-Butoxycarbonyl)amino)propyl)-5-(4-(4-(trifluoromethyl)phenyl)-1H-1,2,3-triazol-1-yl)-[1,1′-biphenyl]-3-carboxylic acid]",EC50,hERG ion channel,18 µM
"N[C@H]1C[C@@H](C(=O)O)[C@H](c2ccc(-c3cc(C(=O)O)cc4cc(-c5ccc(C(F)(F)F)cc5)ccc34)cc2)C1 [Compound 139, 4-(4-((1R,2R,4R)-4-Amino-2-carboxycyclopentyl)phenyl)-7-(4-(trifluoromethyl)phenyl)-2-naphthoic acid]",IC50,hP2Y14R; [4],0.102 ± 0.025 µM
same,Solubility (ug/mL) pH 4,[1],1.05 ± 0.20 ug/mL
same,Solubility (ug/mL) pH 7.4,[1],5.52 ± 0.21 ug/mL
same,Log D7.4,[2],−0.568 ± 0.038
"CC1CC(c2ccc(-c3cc(C(=O)O)cc4cc(-c5ccc(C(F)(F)F)cc5)ccc34)cc2)CCN1 (centres unmarked) [Compound 107, 4-(4-(2-Methylpiperidin-4-yl)phenyl)-7-(4-(trifluoromethyl)phenyl)-2-naphthoic acid]",IC50,hP2Y14R; [4],0.0178 ± 0.002 µM
same,Solubility (ug/mL) pH 4,[1],0.31 ± 0.04 ug/mL
same,Solubility (ug/mL) pH 7.4,[1],0.16 ± 0.03 ug/mL
same,chromatographic logD,[2],2.05 ± 0.11
"CN1C[C@H]2CC[C@@H](C1)[C@]2(O)c1ccc(-c2cc(C(=O)O)cc3cc(-c4ccc(C(F)(F)F)cc4)ccc23)cc1 [Compound 132, 4-(4-((1R,5S,8r)-8-Hydroxy-3-methyl-3-azabicyclo[3.2.1]octan-8-yl)phenyl)-7-(4-(trifluoromethyl)phenyl)-2-naphthoic acid]",IC50,hP2Y14R,0.0446 ± 0.0017 µM
same,solubility,"[1]; pH 4, aqueous buffer",1.81 ± 0.05 µg/mL
same,solubility,"[1]; pH 7.4, aqueous buffer",0.88 ± 0.09 µg/mL
same,chromatographic logD,[2],1.37 ± 0.02
"N[C@@H]1C[C@H](C(=O)O)C[C@H]1c1ccc(-c2cc(C(=O)O)cc3cc(-c4ccc(C(F)(F)F)cc4)ccc23)cc1 [Compound 140, 4-(4-((1S,2R,4R)-2-Amino-4-carboxycyclopentyl)phenyl)-7-(4-(trifluoromethyl)phenyl)-2-naphthoic acid]",IC50,hP2Y14R; [4],0.165 ± 0.051 µM
same,Solubility (ug/mL) pH 4,[1],0.34 ± 0.07 ug/mL
same,Solubility (ug/mL) pH 7.4,[1],3.92 ± 0.10 ug/mL
same,Log D7.4,[2],−0.478 ± 0.050
"O=C(O)c1cc(-c2ccc([C@@H]3CCN[C@@H]4C[C@@H]43)cc2)c2ccc(-c3ccc(C(F)(F)F)cc3)cc2c1 (racemic) [Compound 111, rac-4-(4-((1R,5R,6R)-2-Azabicyclo[4.1.0]heptan-5-yl)phenyl)-7-(4-(trifluoromethyl)phenyl)-2-naphthoic acid]",IC50,hP2Y14R,0.0618 ± 0.0141 µM
same,Solubility (ug/mL) pH 4,[1],0.24 ± 0.02 ug/mL
same,solubility,"[1]; pH 7.4, aqueous buffer",0.05 ± 0.04 µg/mL
same,chromatographic logD,[2],1.75 ± 0.06
"NCC#Cc1ccc(-c2cc(C(=O)O)cc(-n3cc(-c4ccc(C(F)(F)F)cc4)nn3)c2)cc1 [Compound 19, 4′-(3-Aminoprop-1-yn-1-yl)-5-(4-(4-(trifluoromethyl)phenyl)-1H-1,2,3-triazol-1-yl)-[1,1′-biphenyl]-3-carboxylic acid]",IC50,"hP2Y14R; Table 1, fluorescent antagonist 2, hP2Y14R-CHO cells, 3-4 determinations, read-out: IC50, hP2Y14R (μM, mean ± SEM)",0.308 ± 0.063 µM
same,affinity at the mP2Y14R vs the human homologue,mP2Y14R,nearly the same affinity in the two species
same,IC50,mP2Y14R; [3],0.375 ± 0.175 µM

# Source: US20240150290A1, “HETEROCYCLIC P2Y14 RECEPTOR ANTAGONISTS” (priority 2021, published 2024)
